Source: patent US20240238423A9, “TETRAHYDROISOQUINOLINE HETEROBIFUNCTIONAL BCL-XL DEGRADERS” (Treeline Biosciences, Inc., priority 2022, published 2024)
Read-outs that look alike come from different tables or passages of the source.

Target: T1, Human BCL-XL protein (N-terminal HiBiT tagged BCL-XL in HT1080 cells) (Homo sapiens, UniProt Q07817)
T1 construct: expressed in transfected cells; host or cells: HT-1080 (ATCC CCL-121), stably transduced with lentivirus pLV-UBC-N-HiBiT-BCL-XL-PGK-puro and selected with puromycin
T1 sequence (Q07817 whole entry): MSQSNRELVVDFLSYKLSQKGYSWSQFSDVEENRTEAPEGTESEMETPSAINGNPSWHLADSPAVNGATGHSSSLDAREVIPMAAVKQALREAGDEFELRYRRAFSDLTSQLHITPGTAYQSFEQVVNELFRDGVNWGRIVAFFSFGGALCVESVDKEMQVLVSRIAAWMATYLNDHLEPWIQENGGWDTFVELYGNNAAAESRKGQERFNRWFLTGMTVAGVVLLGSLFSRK
Assay: HiBiT based degradation assay
Type: cell-based
Conditions: HT1080 cells expressing HiBiT-BCL-XL; for Ymin (6 h) / Ymin (24 h): BCL-XL degradation normalized with DMSO control; for DC50: BCL-XL degradation
Summary of the method: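 This HiBiT degradation assay measured loss of BCL-XL in HT1080 cells that stably express an N-terminal HiBiT-BCL-XL fusion delivered by lentivirus. Cells were added to compound-spotted 384-well plates, and luminescence was read on a PHERAstar FSX reader. Signal was expressed relative to DMSO controls, curves were fitted by four-parameter logistic regression, and for hook-shaped curves the Ymin point served as the bottom plateau when calculating EC50.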

Ymin (6 h)	Ymin (24 h)	DC50 (6 h, read-out: EC50 (6 h)) [nM]	DC50 (24 h, read-out: EC50 (24 h)) [nM]	SMILES
–	A (Ymin < 50%)	–	< 100	Cc1c(OCCCC2CCN(C3CCN(c4ccc5c(C6CCC(=O)NC6=O)nn(C)c5c4)CC3)CC2)cccc1-c1ccc(N2CCc3cccc(C(=O)Nc4nc5ccccc5s4)c3C2)nc1C(=O)O (stereo not drawn) [Compound 306, 6-(8-(benzo[d]thiazol-2-ylcarbamoyl)-3,4-dihydroisoquinolin-2(1H)-yl)-3-(3-(3-(1′-(3-(2,6-dioxopiperidin-3-yl)-1-methyl-1H-indazol-6-yl)-[1,4′-bipiperidin]-4-yl)propoxy)-2-methylphenyl)picolinic acid]
–	B (50% ≤ Ymin < 70%)	–	< 100	Cc1c(O[C@H]2CC[C@H](CC(F)(F)C(=O)N3CCN(c4ccc5c(C6CCC(=O)NC6=O)nn(C)c5c4)CC3)CC2)cccc1-c1ccc(N2CCc3cccc(C(=O)Nc4nc5ccccc5s4)c3C2)nc1C(=O)O (stereo partly drawn) [Compound 239a, 6-(8-(benzo[d]thiazol-2-ylcarbamoyl)-3,4-dihydroisoquinolin-2(1H)-yl)-3-(3-(((1r,4r)-4-(3-(4-(3-(2,6-dioxopiperidin-3-yl)-1-methyl-1H-indazol-6-yl)piperazin-1-yl)-2,2-difluoro-3-oxopropyl)cyclohexyl)oxy)-2-methylphenyl)picolinic acid]
–	A (Ymin < 50%)	–	< 100	Cc1c(OCCC[C@@H]2CCN(CC(=O)Nc3ccc4c(C5CCC(=O)NC5=O)nn(C)c4c3)[C@H](C)C2)cccc1-c1ccc(N2CCc3cccc(C(=O)Nc4nc5ccccc5s4)c3C2)nc1C(=O)O (stereo partly drawn) [Compound 343a, 6-(8-(benzo[d]thiazol-2-ylcarbamoyl)-3,4-dihydroisoquinolin-2(1H)-yl)-3-(3-(3-((2R,4R)-1-(2-((3-(2,6-dioxopiperidin-3-yl)-1-methyl-1H-indazol-6-yl)amino)-2-oxoethyl)-2-methylpiperidin-4-yl)propoxy)-2-methylphenyl)picolinic acid]
C (Ymin ≥ 70%)	B (50% ≤ Ymin < 70%)	1000 to 10000	< 100	Cc1c(Oc2ccc(CCC(=O)N3CCN(c4ccc5c(C6CCC(=O)NC6=O)nn(C)c5c4)CC3)cc2)cccc1-c1ccc(N2CCc3cccc(C(=O)Nc4nc5ccccc5s4)c3C2)nc1C(=O)O (stereo not drawn) [Compound 244, 6-(8-(benzo[d]thiazol-2-ylcarbamoyl)-3,4-dihydroisoquinolin-2(1H)-yl)-3-(3-(4-(3-(4-(3-(2,6-dioxopiperidin-3-yl)-1-methyl-1H-indazol-6-yl)piperazin-1-yl)-3-oxopropyl)phenoxy)-2-methylphenyl)picolinic acid]
–	A (Ymin < 50%)	–	< 100	Cc1cc(CCCOC2CCN(CC(=O)Nc3ccc4c(C5CCC(=O)NC5=O)nn(C)c4c3)CC2)ccc1-c1ccc(N2CCc3cccc(C(=O)Nc4nc5ccccc5s4)c3C2)nc1C(=O)O (stereo not drawn) [Compound 291, 6-[8-(1,3-benzothiazol-2-ylcarbamoyl)-3,4-dihydro-1H-isoquinolin-2-yl]-3-[4-[3-[[1-[2-[[3-(2,6-dioxo-3-piperidyl)-1-methyl-indazol-6-yl]amino]-2-oxo-ethyl]-4-piperidyl]oxy]propyl]-2-methyl-phenyl]pyridine-2-carboxylic acid]
–	A (Ymin < 50%)	–	< 100	Cc1c(O[C@H]2CC[C@H](CCCN3CC[C@@H](c4ccc5c(C6CCC(=O)NC6=O)nn(C)c5c4)C3)CC2)cccc1-c1ccc(N2CCc3cccc(C(=O)Nc4nc5ccccc5s4)c3C2)nc1C(=O)O (single isomer, unassigned) [Compound 331b]
C (Ymin ≥ 70%)	C (Ymin ≥ 70%)	1000 to 10000	< 100	Cc1c(Oc2ccccc2CCCC(=O)Nc2ccc3c(C4CCC(=O)NC4=O)nn(C)c3c2)cccc1-c1ccc(N2CCc3cccc(C(=O)Nc4nc5ccccc5s4)c3C2)nc1C(=O)O (stereo not drawn) [Compound 129, 6-(8-(benzo[d]thiazol-2-ylcarbamoyl)-3,4-dihydroisoquinolin-2(1H)-yl)-3-(3-(2-(4-((3-(2,6-dioxopiperidin-3-yl)-1-methyl-1H-indazol-6-yl)amino)-4-oxobutyl)phenoxy)-2-methylphenyl)picolinic acid]
–	B (50% ≤ Ymin < 70%)	–	< 100	Cc1c(OCCCN2CCN(CC(=O)Nc3ccc4c(C5CCC(=O)NC5=O)nn(C)c4c3)C[C@H]2C(F)(F)F)cccc1-c1ccc(N2CCc3cccc(C(=O)Nc4nc5ccccc5s4)c3C2)nc1C(=O)O (stereo partly drawn) [Compound 245b, 6-(8-(benzo[d]thiazol-2-ylcarbamoyl)-3,4-dihydroisoquinolin-2(1H)-yl)-3-(3-(3-((2S)-4-(2-((3-(2,6-dioxopiperidin-3-yl)-1-methyl-1H-indazol-6-yl)amino)-2-oxoethyl)-2-(trifluoromethyl)piperazin-1-yl)propoxy)-2-methylphenyl)picolinic acid]
B (50% ≤ Ymin < 70%)	A (Ymin < 50%)	< 100	< 100	Cc1c(OCCC[C@H]2CCCN(CC(=O)Nc3ccc4c(C5CCC(=O)NC5=O)nn(C)c4c3)C2)cccc1-c1ccc(N2CCc3cccc(C(=O)Nc4nc5ccccc5s4)c3C2)nc1C(=O)O (stereo partly drawn) [Compound 207b, 6-(8-(benzo[d]thiazol-2-ylcarbamoyl)-3,4-dihydroisoquinolin-2(1H)-yl)-3-(3-(3-((3R)-1-(2-((3-(2,6-dioxopiperidin-3-yl)-1-methyl-1H-indazol-6-yl)amino)-2-oxoethyl)piperidin-3-yl)propoxy)-2-methylphenyl)picolinic acid]
–	B (50% ≤ Ymin < 70%)	–	100 to 1000	Cc1c(OCCC[C@H]2CCN(CC(=O)Nc3cccc4c(C5CCC(=O)NC5=O)nn(C)c34)CC2(F)F)cccc1-c1ccc(N2CCc3cccc(C(=O)Nc4nc5ccccc5s4)c3C2)nc1C(=O)O (stereo partly drawn) [Compound 197a, 6-(8-(benzo[d]thiazol-2-ylcarbamoyl)-3,4-dihydroisoquinolin-2(1H)-yl)-3-(3-(3-((4S)-1-(2-((3-(2,6-dioxopiperidin-3-yl)-1-methyl-1H-indazol-7-yl)amino)-2-oxoethyl)-3,3-difluoropiperidin-4-yl)propoxy)-2-methylphenyl)picolinic acid]
B (50% ≤ Ymin < 70%)	B (50% ≤ Ymin < 70%)	< 100	100 to 1000	Cc1c(OCCCN2CCN(CC(=O)Nc3cccc4c(C5CCC(=O)NC5=O)nn(C)c34)CC2)cccc1-c1ccc(N2CCc3cccc(C(=O)Nc4nc5ccccc5s4)c3C2)nc1C(=O)O (stereo not drawn) [Compound 105, 6-[8-(1,3-benzothiazol-2-ylcarbamoyl)-3,4-dihydro-1H-isoquinolin-2-yl]-3-[3-[3-[4-[2-[[3-(2,6-dioxo-3-piperidyl)-1-methyl-indazol-7-yl]amino]-2-oxo-ethyl]piperazin-1-yl]propoxy]-2-methyl-phenyl]pyridine-2-carboxylic acid]
–	B (50% ≤ Ymin < 70%)	–	100 to 1000	Cc1c(OCC(F)(F)CN2C[C@@H](C)N(CC(=O)Nc3ccc4c(C5CCC(=O)NC5=O)nn(C)c4c3)[C@@H](C)C2)cccc1-c1ccc(N2CCc3cccc(C(=O)Nc4nc5ccccc5s4)c3C2)nc1C(=O)O (stereo partly drawn) [Compound 177a, 6-[8-(1,3-benzothiazol-2-ylcarbamoyl)-3,4-dihydro-1H-isoquinolin-2-yl]-3-[3-[3-[(3R,5S)-4-[2-[[3-(2,6-dioxo-3-piperidyl)-1-methyl-indazol-6-yl]amino]-2-oxo-ethyl]-3,5-dimethyl-piperazin-1-yl]-2,2-difluoro-propoxy]-2-methyl-phenyl]pyridine-2-carboxylic acid]
–	A (Ymin < 50%)	–	< 100	Cn1nc(C2CCC(=O)NC2=O)c2ccc(N3CCN(CCC[C@H]4CC[C@H](Oc5cccc(-c6ccc(N7CCc8cccc(C(=O)Nc9nc%10ccccc%10s9)c8C7)nc6C(=O)O)c5)CC4)CC3)cc21 (stereo partly drawn) [Compound 330a, 6-(8-(benzo[d]thiazol-2-ylcarbamoyl)-3,4-dihydroisoquinolin-2(1H)-yl)-3-(3-(((1s,4r)-4-(3-(4-(3-(2,6-dioxopiperidin-3-yl)-1-methyl-1H-indazol-6-yl)piperazin-1-yl)propyl)cyclohexyl)oxy)phenyl)picolinic acid]
A (Ymin < 50%)	A (Ymin < 50%)	< 100	< 100	Cc1c(OCCCN2CCN(CCCOc3ccc4c(C5CCC(=O)NC5=O)nn(C)c4c3)CC2)cccc1-c1ccc(N2CCc3cccc(C(=O)Nc4nc5ccccc5s4)c3C2)nc1C(=O)O (stereo not drawn) [Compound 133, 6-(8-(Benzo[d]thiazol-2-ylcarbamoyl)-3,4-dihydroisoquinolin-2(1H)-yl)-3-(3-(3-(4-(3-((3-(2,6-dioxopiperidin-3-yl)-1-methyl-1H-indazol-6-yl)oxy)propyl)piperazin-1-yl)propoxy)-2-methylphenyl)picolinic acid]

SMILES	Ymin (6 h)	Ymin (24 h)	DC50 (6 h, read-out: EC50 (6 h)) [nM]	DC50 (24 h, read-out: EC50 (24 h)) [nM]
Cc1c(OCCCCC2CCN(CC(=O)Nc3cccc4c(C5CCC(=O)NC5=O)nn(C)c34)CC2)cccc1-c1ccc(N2CCc3cccc(C(=O)Nc4nc5ccccc5s4)c3C2)nc1C(=O)O (stereo not drawn) [Compound 213, 6-(8-(benzo[d]thiazol-2-ylcarbamoyl)-3,4-dihydroisoquinolin-2(1H)-yl)-3-(3-(4-(1-(2-((3-(2,6-dioxopiperidin-3-yl)-1-methyl-1H-indazol-7-yl)amino)-2-oxoethyl)piperidin-4-yl)butoxy)-2-methylphenyl)picolinic acid]	C (Ymin ≥ 70%)	A (Ymin < 50%)	1000 to 10000	100 to 1000
